“And” between values parts separate entries of the source, which are not always exact repeats. Identical values can stand only once. Toxic doses and inconclusive results are not listed. No stated cut-off is given here; in the data, active means T/C of 150% or more; inactive means T/C below 125%.
Tested on: L1210 leukemia ip in BDF1 mice, survival T/C
Assay: NCI In Vivo Anticancer Drug Screen. Data for tumor model L1210 Leukemia (intraperitoneal) in B6D2F1 (BDF1) mice
Settings: endpoint: mean survival time, higher = longer survival
Procedure, shortened: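 Ratio derived from survival: compound-dosed mice over vehicle-dosed mice, all bearing a transplantable tumor.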

[1] = dose: 100.0 mg/kg/injection, schedule: Q04DX003 (ip), vehicle: saline
[2] = dose: 200.0 mg/kg/injection, schedule: Q04DX003 (ip), vehicle: saline
[3] = dose: 400.0 mg/kg/injection, schedule: Q04DX003 (ip), vehicle: saline
[4] = dose: 100.0 mg/kg/injection, schedule: Q01DX001 (ip), vehicle: carboxymethylcellulose (CMC)
[5] = dose: 100.0 mg/kg/injection, schedule: Q04DX003 (ip), vehicle: saline with Tween-80
[6] = dose: 200.0 mg/kg/injection, schedule: Q01DX001 (ip), vehicle: carboxymethylcellulose (CMC)
[7] = dose: 200.0 mg/kg/injection, schedule: Q04DX003 (ip), vehicle: saline with Tween-80
[8] = dose: 400.0 mg/kg/injection, schedule: Q01DX001 (ip), vehicle: carboxymethylcellulose (CMC)
[9] = dose: 400.0 mg/kg/injection, schedule: Q04DX003 (ip), vehicle: saline with Tween-80
[10] = dose: 100.0 mg/kg/injection, schedule: Q01DX009 (ip), vehicle: Klucel (hydroxypropylcellulose) (HPC)
[11] = dose: 100.0 mg/kg/injection, schedule: Q04DX003 (ip), vehicle: Klucel (hydroxypropylcellulose) (HPC)
[12] = dose: 200.0 mg/kg/injection, schedule: Q01DX009 (ip), vehicle: Klucel (hydroxypropylcellulose) (HPC)
[13] = dose: 200.0 mg/kg/injection, schedule: Q04DX003 (ip), vehicle: Klucel (hydroxypropylcellulose) (HPC)
[14] = dose: 400.0 mg/kg/injection, schedule: Q01DX009 (ip), vehicle: Klucel (hydroxypropylcellulose) (HPC)
[15] = dose: 400.0 mg/kg/injection, schedule: Q04DX003 (ip), vehicle: Klucel (hydroxypropylcellulose) (HPC)
[16] = dose: 100.0 mg/kg/injection, schedule: Q01DX009 (ip), vehicle: saline with Tween-80
[17] = dose: 100.0 mg/kg/injection, schedule: Q04DX002 (ip), vehicle: saline with Tween-80
[18] = dose: 200.0 mg/kg/injection, schedule: Q04DX002 (ip), vehicle: saline with Tween-80
[19] = dose: 400.0 mg/kg/injection, schedule: Q04DX002 (ip), vehicle: saline with Tween-80
[20] = dose: 100.0 mg/kg/injection, schedule: Q01DX001 (ip), vehicle: Klucel (hydroxypropylcellulose) (HPC)
[21] = dose: 200.0 mg/kg/injection, schedule: Q01DX001 (ip), vehicle: Klucel (hydroxypropylcellulose) (HPC)
[22] = dose: 400.0 mg/kg/injection, schedule: Q01DX001 (ip), vehicle: Klucel (hydroxypropylcellulose) (HPC)
[23] = dose: 200.0 mg/kg/injection, schedule: Q01DX009 (ip), vehicle: saline with Tween-80
[24] = dose: 400.0 mg/kg/injection, schedule: Q01DX009 (ip), vehicle: saline with Tween-80

Measured: T/C

CC(=O)OC1CCC2(C)C(CCC3C2CCC2(C)C3CC3OC(CCCC(C)CO)C(C)C32)C1 (stereo not drawn)
inactive: dose: 25.0 mg/kg/injection, schedule: Q01DX001 (ip), vehicle: saline with Tween-80 88 % of control | dose: 50.0 mg/kg/injection, schedule: Q01DX001 (ip), vehicle: saline with Tween-80 98 % of control | dose: 100.0 mg/kg/injection, schedule: Q01DX001 (ip), vehicle: saline with Tween-80 95 % of control | dose: 400.0 mg/kg/injection, schedule: Q01DX001 (ip), vehicle: saline with Tween-80 95 % of control

CC(=O)N1CCc2c(O)cccc2C1
inactive: [1] 93 % of control | [2] 93 % of control | [3] 102 % of control

C=C1C=C(C)N(C(=O)c2ccccc2)CCN1C(=O)c1ccccc1
inactive: [1] 96 % of control | [2] 95 % of control | [3] 106 % of control

CN1Cc2c(ccc3c2OCO3)[C@@H]2[C@H](O)Cc3cc4c(cc3[C@@H]21)OCO4
inactive: dose: 50.0 mg/kg/injection, schedule: Q01DX Z (ip), vehicle: carboxymethylcellulose (CMC) 102 % of control | dose: 75.0 mg/kg/injection, schedule: Q01DX Z (ip), vehicle: carboxymethylcellulose (CMC) 108 % of control | [4] 102 % of control | dose: 100.0 mg/kg/injection, schedule: Q01DX Z (ip), vehicle: carboxymethylcellulose (CMC) 102 % of control | [5] 101 % of control | dose: 180.0 mg/kg/injection, schedule: Q04DX003 (ip), vehicle: Klucel (hydroxypropylcellulose) (HPC) 111 % of control | [6] 113 % of control | [7] 101 % of control | dose: 266.0 mg/kg/injection, schedule: Q04DX003 (ip), vehicle: Klucel (hydroxypropylcellulose) (HPC) 98 % of control | dose: 266.0 mg/kg/injection, schedule: Q04DX003 (ip), vehicle: saline 105 % of control | dose: 300.0 mg/kg/injection, schedule: Q01DX Z (ip), vehicle: carboxymethylcellulose (CMC) 98 % of control | [8] 102 % of control | [3] 111 % of control
active: [9] 165 % of control | dose: 600.0 mg/kg/injection, schedule: Q04DX003 (ip), vehicle: Klucel (hydroxypropylcellulose) (HPC) 157 % of control

CSc1ccc(OC(=O)Oc2ccc(SC)c(C)c2)cc1C
inactive: [4] 92 % of control | [6] 92 % of control | [8] 97 % of control

CS(=O)(=O)OCC(=O)COS(C)(=O)=O
inactive: dose: 1.25 mg/kg/injection, schedule: Q01DX009 (ip), vehicle: saline 95 % of control | dose: 2.5 mg/kg/injection, schedule: Q01DX009 (ip), vehicle: saline 93 % of control | dose: 10.0 mg/kg/injection, schedule: Q01DX009 (ip), vehicle: saline 116 % of control

CSC1=[N+](C)CCS1
inactive: dose: 75.0 mg/kg/injection, schedule: Q01DX001 (ip), vehicle: saline 106 % of control | dose: 75.0 mg/kg/injection, schedule: Q04DX003 (ip), vehicle: saline with Tween-80 109 % of control | dose: 87.5 mg/kg/injection, schedule: Q01DX009 (ip), vehicle: saline 98 % of control | dose: 150.0 mg/kg/injection, schedule: Q01DX001 (ip), vehicle: saline 107 % of control | dose: 150.0 mg/kg/injection, schedule: Q04DX003 (ip), vehicle: saline with Tween-80 101 % of control | dose: 175.0 mg/kg/injection, schedule: Q01DX009 (ip), vehicle: saline 100 % of control

CCOC(=O)/C=C/C(=O)O.[Cu+2]
inactive: dose: 3.12 mg/kg/injection, schedule: Q04DX003 (ip), vehicle: saline 94 % of control | dose: 6.25 mg/kg/injection, schedule: Q04DX003 (ip), vehicle: saline 89 % of control and 91 % of control

O=C(O)/C=C/C(=O)Nc1cccc2c1C(=O)c1ccccc1-2
inactive: [5] 94 % of control

Nc1ncnc2c1ncn2C1OC(C2CC2)C(O)C1O (stereo not drawn)
inactive: dose: 25.0 mg/kg/injection, schedule: Q01DX005 (ip), vehicle: saline 111 % of control | dose: 50.0 mg/kg/injection, schedule: Q01DX005 (ip), vehicle: saline 104 % of control | dose: 100.0 mg/kg/injection, schedule: Q01DX005 (ip), vehicle: saline 98 % of control | dose: 200.0 mg/kg/injection, schedule: Q01DX005 (ip), vehicle: saline 94 % of control

CC(=O)CC(=O)N1CCCC(C)C1 (stereo not drawn)
inactive: [10] 102 % of control | [11] 104 % of control | [12] 92 % of control | [13] 106 % of control | [14] 96 % of control | [15] 106 % of control

O=C(N/N=C\c1ccc(Cl)cc1Cl)c1ccc(F)cc1
inactive: dose: 25.0 mg/kg/injection, schedule: Q01DX009 (ip), vehicle: saline with Tween-80 96 % of control | dose: 50.0 mg/kg/injection, schedule: Q01DX009 (ip), vehicle: saline with Tween-80 94 % of control | [16] 92 % of control

CN(C)c1ccc(N=[N+]=[N-])cc1
inactive: [17] 98 % of control | [18] 95 % of control | [19] 98 % of control

CCCCN=Cc1ccc(Cl)cc1
inactive: [17] 90 % of control | [18] 87 % of control | [19] 100 % of control

COc1ccc2c(n1)Sc1c(Cl)nc(N)nc1N2
inactive: [20] 97 % of control | [21] 97 % of control | [22] 98 % of control

COc1ccccc1NC(=S)Nc1ccccc1
inactive: dose: 100.0 mg/kg/injection, schedule: Q04DX002 (ip), vehicle: Klucel (hydroxypropylcellulose) (HPC) 97 % of control | dose: 200.0 mg/kg/injection, schedule: Q04DX002 (ip), vehicle: Klucel (hydroxypropylcellulose) (HPC) 101 % of control | dose: 400.0 mg/kg/injection, schedule: Q04DX002 (ip), vehicle: Klucel (hydroxypropylcellulose) (HPC) 108 % of control

Cc1ccc(-c2nc3cc(Cl)ccc3c(=O)o2)cc1
inactive: [5] 105 % of control | [7] 102 % of control | [9] 94 % of control

CN(C)C(=O)C1CCC1
inactive: [16] 91 % of control | [5] 103 % of control | [23] 105 % of control | [7] 101 % of control | [24] 100 % of control | [9] 104 % of control

CCOC(=O)CC(C(C)=O)C(=O)OCC (stereo not drawn)
inactive: dose: 50.0 mg/kg/injection, schedule: Q01DX001 (ip), vehicle: carboxymethylcellulose (CMC) 100 % of control | [4] 100 % of control | [6] 94 % of control | [8] 100 % of control

CC(C)C(C(=O)c1ccccc1)c1ccccc1 (stereo not drawn)
inactive: [16] 93 % of control | [5] 99 % of control | [23] 93 % of control | [7] 100 % of control | [24] 104 % of control | [9] 89 % of control

CCOC(=O)NN(C(=O)OCC)c1c(N)nc(N)[nH]c1=O
inactive: [20] 92 % of control | [21] 101 % of control | [22] 92 % of control

CCOC(=O)/C(C#N)=C/c1ccc(O)c(OC)c1
inactive: [10] 101 % of control | [11] 102 % of control | [12] 94 % of control | [13] 96 % of control | [14] 89 % of control | [15] 95 % of control

CCN(CC)c1ccc(NCN2C(=O)c3ccccc3C2=O)c(C)c1
inactive: [17] 97 % of control | [18] 111 % of control

CC(=O)c1ccc(O)c2ccccc12
inactive: [17] 92 % of control | [18] 95 % of control | [19] 100 % of control

CC(=O)OC1CCC2(C)C(=CCC3C2CCC2(C)C(c4cccc(=O)o4)CCC32)C1 (stereo not drawn)
inactive: dose: 100.0 mg/kg/injection, schedule: Q01DX001 (sc), vehicle: steriod suspending solution 100 % of control | dose: 200.0 mg/kg/injection, schedule: Q01DX001 (sc), vehicle: steriod suspending solution 102 % of control | dose: 400.0 mg/kg/injection, schedule: Q01DX001 (sc), vehicle: steriod suspending solution 93 % of control

COc1cc(C)c(Cl)c(C)c1C#CC(=O)O
inactive: dose: 75.0 mg/kg/injection, schedule: Q01DX009 (ip), vehicle: Klucel (hydroxypropylcellulose) (HPC) 101 % of control | dose: 150.0 mg/kg/injection, schedule: Q01DX009 (ip), vehicle: Klucel (hydroxypropylcellulose) (HPC) 100 % of control

— PubChem BioAssay AID248 (DTP/NCI, 2004)
